Key:
PIM2 = PIM2 (Homo sapiens, UniProt Q9P1W9); assay: Pim 2 AlphaScreen assay (high ATP); type: biochemical; conditions: read-out: Pim2 IC50
Procedure, shortened: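 IC50 values rest on detection of phosphorylated Bad peptide: after a ~2 h kinase reaction, an EDTA stop buffer containing anti-phospho Ser/Thr antibody, Protein A and streptavidin AlphaScreen beads was added and read after overnight dark incubation. ATP was high (11-125× Km), with 2.5% DMSO in pH 7.5 Hepes buffer containing MgCl2, BSA, Tween-20 and DTT.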

FGFR3 kinase = FGFR3 kinase (Homo sapiens, UniProt P22607); assay: FGFR3 kinase inhibition assay (LanthaScreen TR-FRET); type: biochemical
Experimental: FGFR3 Kinase Inhibition Assay
LanthaScreen™ is the detection of Time-Resolved Fluorescence Resonance Energy Transfer (TR-FRET) using lanthanide chelates to measure interactions between various binding partners. The application of TR-FRET to assay kinase activity was first described by Mathis (1995). A TR-FRET assay was used to measure FGFR3 kinase inhibitory activity. The assay panel was run on a Biomek FX liquid handling workstations. To the assay plates containing […] compound or control solutions, 4.5 μL of buffer A (50 mM TRIS-HCl pH 7.4, 2 mM DTT, 0.02% Tween 20, 0.02 mM Na3VO4, H2O nanpure) including a generic concentration of ATP (2 μM f.c.) was added per well, followed by 4.5 μL of buffer B (4 uM ATP in Buffer A) including a generic concentration of polyEAY (50 nM f.c.), FGFR3 kinase, and divalent cations. Final concentration of kinase and cations were: [FGFR3 kinase]=0.20 nM, [Mg]=3 mM, [Mn]=3 mM. After 1 hour of incubation the kinase reactions were stopped by the addition of 4.5 μL of stop solution D (50 mM EDTA, 20 mM TRIS-HCl pH 7.4, 0.04% NP-40) immediately followed by 4.5 μL of buffer A (50 mM TRIS-HCl pH 7.4, 2 mM DTT, 0.02% Tween 20, 0.02 mM Na3VO4, H2O nanpure) including the Tb-labeled P-20 antibody to give a total detection volume of 18 μL. After an incubation time of 45 min in the dark, the plates were transferred into the Pherastar fluorescence reader for counting. The effect of compound on the enzymatic activity was obtained from the linear progress curves and determined from one reading (end point measurement).

Chain of FGFR3 kinase (P22607 23-806): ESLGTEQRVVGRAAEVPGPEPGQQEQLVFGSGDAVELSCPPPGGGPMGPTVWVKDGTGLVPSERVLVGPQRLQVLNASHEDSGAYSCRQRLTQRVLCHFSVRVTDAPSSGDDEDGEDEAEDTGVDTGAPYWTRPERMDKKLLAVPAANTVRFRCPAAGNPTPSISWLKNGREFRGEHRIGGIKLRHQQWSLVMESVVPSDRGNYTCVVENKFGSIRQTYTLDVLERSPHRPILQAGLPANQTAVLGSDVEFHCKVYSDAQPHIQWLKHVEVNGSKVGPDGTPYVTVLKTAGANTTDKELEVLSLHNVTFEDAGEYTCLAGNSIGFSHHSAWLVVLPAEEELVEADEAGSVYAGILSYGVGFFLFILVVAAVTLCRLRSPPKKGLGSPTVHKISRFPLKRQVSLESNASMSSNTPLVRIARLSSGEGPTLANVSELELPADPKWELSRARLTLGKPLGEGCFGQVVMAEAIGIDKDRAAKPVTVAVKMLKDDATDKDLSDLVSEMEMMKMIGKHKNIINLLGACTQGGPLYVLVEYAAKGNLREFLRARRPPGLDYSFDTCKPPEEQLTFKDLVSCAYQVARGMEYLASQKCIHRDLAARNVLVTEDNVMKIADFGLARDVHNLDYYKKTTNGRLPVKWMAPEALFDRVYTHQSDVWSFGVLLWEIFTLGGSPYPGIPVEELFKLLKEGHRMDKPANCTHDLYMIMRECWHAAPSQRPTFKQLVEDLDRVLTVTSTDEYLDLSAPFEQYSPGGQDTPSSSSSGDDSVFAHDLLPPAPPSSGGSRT
Chain of PIM2 (Q9P1W9 whole entry): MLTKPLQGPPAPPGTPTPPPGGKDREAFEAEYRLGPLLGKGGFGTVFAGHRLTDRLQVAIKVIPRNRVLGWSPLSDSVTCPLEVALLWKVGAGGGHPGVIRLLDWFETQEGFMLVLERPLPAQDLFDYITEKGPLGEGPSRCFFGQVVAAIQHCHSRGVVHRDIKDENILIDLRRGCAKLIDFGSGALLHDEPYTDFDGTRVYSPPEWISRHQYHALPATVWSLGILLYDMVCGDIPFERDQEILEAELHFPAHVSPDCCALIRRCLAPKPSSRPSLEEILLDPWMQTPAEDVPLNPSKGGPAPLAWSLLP

IC50 (PIM2)	IC50 (FGFR3 kinase)	Structure (SMILES)
146 nM	420 nM	CC[C@H]1O[C@@H](c2ccncc2NC(=O)c2nc(-c3ccccc3)cnc2N)C[C@@H](N)[C@]1(C)O [Example 348, 3-amino-N-(4-((2R,4R,5S,6R)-4-amino-6-ethyl-5-hydroxy-5-methyltetrahydro-2H-pyran-2-yl)pyridin-3-yl)-6-phenylpyrazine-2-carboxamide]
764 nM	> 10000 nM	CC(C)[C@H]1C[C@@H](N)C[C@@H](c2ccncc2NC(=O)c2nc(-c3ccccc3)cnc2N)O1 [Example 292, 3-amino-N-(4-((2S,4R,6R)-4-amino-6-isopropyltetrahydro-2H-pyran-2-yl)pyridin-3-yl)-6-phenylpyrazine-2-carboxamide]
9 nM	870 nM	CC(C)(C)[C@H]1O[C@@H](c2ccncc2NC(=O)c2nc(-c3ccccc3)cnc2N)C[C@@H](N)[C@@H]1O [Example 354, 3-amino-N-(4-((2R,4R,5S,6R)-4-amino-6-tert-butyl-5-hydroxytetrahydro-2H-pyran-2-yl)pyridin-3-yl)-6-phenylpyrazine-2-carboxamide]
3650 nM	210 nM	CCC[C@H]1O[C@@H](c2ccncc2NC(=O)c2nc(-c3ccccc3)cnc2N)C[C@@H](O)[C@@H]1O [Example 340, 3-amino-N-(4-((2R,4R,5S,6R)-4,5-dihydroxy-6-propyltetrahydro-2H-pyran-2-yl)pyridin-3-yl)-6-phenylpyrazine-2-carboxamide]
76.6 nM	44 nM	Nc1ncc(-c2ccccc2)nc1C(=O)Nc1cnccc1[C@H]1C[C@@H](N)[C@@]2(O)CCC[C@H]2O1 [Example 183, 3-amino-N-(4-((2R,4R,4aS,7aR)-4-amino-4a-hydroxyoctahydrocyclopenta[b]pyran-2-yl)pyridin-3-yl)-6-phenylpyrazine-2-carboxamide]
2430 nM	–	C[C@]1(O)[C@H](N)C[C@H](c2ccncc2NC(=O)c2nc(-c3ccccc3)cnc2N)OC12CC2 [Example 353, 3-amino-N-(4-((5R,7R,8S)-7-amino-8-hydroxy-8-methyl-4-oxaspiro[2.5]octan-5-yl)pyridin-3-yl)-6-phenylpyrazine-2-carboxamide]
786 nM	–	C[C@@]1(O)[C@@H](N)C[C@@H](c2ccncc2NC(=O)c2nc(-c3ccccc3)cnc2N)OC12CC2 [Example 350, 3-amino-N-(4-((5S,7S,8R)-7-amino-8-hydroxy-8-methyl-4-oxaspiro[2.5]octan-5-yl)pyridin-3-yl)-6-phenylpyrazine-2-carboxamide]
1980 nM	–	C[C@@]1(O)[C@H](N)C[C@@H](c2ccncc2NC(=O)c2nc(-c3ccccc3)cnc2N)OC12CC2 [Example 352, 3-amino-N-(4-((5S,7R,8R)-7-amino-8-hydroxy-8-methyl-4-oxaspiro[2.5]octan-5-yl)pyridin-3-yl)-6-phenylpyrazine-2-carboxamide]
5140 nM	–	Nc1ncc(-c2ccccc2)nc1C(=O)Nc1cnccc1[C@@H]1C[C@H](N)[C@@H]2CCC[C@@H]2O1 [Example 233, 3-amino-N-(4-((2S,4S,4aS,7aS)-4-aminooctahydrocyclopenta[b]pyran-2-yl)pyridin-3-yl)-6-phenylpyrazine-2-carboxamide]
538 nM	–	C[C@]1(O)[C@@H](N)C[C@H](c2ccncc2NC(=O)c2nc(-c3ccccc3)cnc2N)OC12CC2 [Example 351, 3-amino-N-(4-((5R,7S,8S)-7-amino-8-hydroxy-8-methyl-4-oxaspiro[2.5]octan-5-yl)pyridin-3-yl)-6-phenylpyrazine-2-carboxamide]
89.2 nM	–	Nc1ncc(-c2ccccc2)nc1C(=O)Nc1cnccc1[C@H]1C[C@@H](N)[C@@]2(O)CCCC[C@H]2O1 [Example 197, 3-amino-N-(4-((2R,4R,4aS,8aR)-4-amino-4a-hydroxyoctahydro-2H-chromen-2-yl)pyridin-3-yl)-6-phenylpyrazine-2-carboxamide]
102 nM	–	Nc1ncc(-c2ccccc2)nc1C(=O)Nc1cnccc1[C@H]1C[C@@H](N)[C@H]2CCC[C@H]2O1 [Example 199, 3-amino-N-(4-((2R,4R,4aR,7aR)-4-aminooctahydrocyclopenta[b]pyran-2-yl)pyridin-3-yl)-6-phenylpyrazine-2-carboxamide]
